Legend:
[1] = system: αTC1-6 glucagonoma cells; test: αTC1-6 cell proliferation (CellTiter 96 Aqueous), WT and Slc38a5 KD; format: cell-based; settings: 4 mM in culture medium, 5 days; for cell proliferation, Slc38a5 knock-down αTC1-6 cells: compared with wildtype cells
Text: Slc38a5 KO αTC1 clones were generated using CRISPR-Cas9 techniques. Target sequences (sgRNAs) were designed using an online sgRNA design tool from DNA2.0 (DNA2.0). The sgRNAs were cloned into the pSpCas9-2A-GFP-Puro vector using BsmBl (NEB) and αTC1 cells were transfected with Lipofectamine 2000 according to the manufacturers' instructions (Life Technologies). Clones with deletion mutations were verified by PCR amplifications, TaqMan analysis and RNA sequencing. […] Both WT and Slc38a5 KD αTC1/6 cells were prepared in an assay medium (MEM from Gibco), supplemented with 5% fetal bovine serum (FBS), 10 mM HEPES, and 100 IU/ml penicillin and 100 μg/ml streptomycin) and seeded on 96-well plates at a density of ˜15,000 cells per well in 4-6 replicates. Selected amino acids were added to the final concentration of 4 mM. Cell proliferations were measured every day using the CellTiter 96 Aqueous Cell Proliferation Assay (Promega) according to the manufacturer's instructions. Briefly, 20 μl of assay reagent was added to each well and the cell plates were incubated in a tissue culture incubator for 2.5 hours. Absorbance was measured at 490 nm on a plate reader SpectraMax Plus (Molecular Devices). Values were corrected for background absorbance using the averages of the wells containing assay medium only and plotted in Prism (GraphPad).

[2] = system: C57BL/6 mice; test: GCGR antibody with or without rapamycin in C57BL/6 mice: blood chemistry, islet cell mass; settings: GCGR-antibody and rapamycin-treated mice
Procedure: C57BL/6 mice (males, 10 weeks of age, Taconic) were housed (5 mice per cage) in a controlled environment (12-h light/dark cycle, 22±1° C., 60-70% humidity) and fed ad libitum with standard chow (Purina Laboratory Rodent Diet 5001, LabDiet). Mice were assigned to study groups (n=10) based on baseline blood glucose levels. Mice were injected subcutaneously (sc) with GCGR antibody (3 mg/kg) or the control antibody (3 mg/kg) alone or in combination with rapamycin (10 mg/kg) or the vehicle. For the duration of the study, GCGR or control antibody was administered once weekly, whereas rapamycin or the vehicle was administered daily. Blood was collected from the tail for glucose measurements without fasting. Plasma samples were collected via submandibular bleeds at baseline and on day 21 after dosing for analysis of hormones and total amino acid levels. Seven days after the last antibody administration (day 21), mice were sacrificed, organs weighed and pancreata collected.
Pancreas α- and β-cell mass was measured as described elsewhere (Okamato et al., 2015, Endocrinology 156:2781-2794). α- and PP cell mass were determined using anti-somatostatin antibody (Sigma-Aldrich; #SAB4502861) and anti-pancreatic polypeptide antibody (Sigma-Aldrich; #SAB2500747). For quantifying Slc38a5 positive α-cells, pancreas sections were stained with human anti-glucagon and rabbit anti-Slc38a5 (Abcam; #ab72717) primary antibodies, and Alexa Fluor 488 labeled donkey anti-rabbit (Jackson ImmunoResearch; #711-545-152) and Alexa Fluor 594 donkey anti-human (Jackson ImmunoResearch; #709-585-149) secondary antibodies. For quantifying proliferating cells, Alexa Fluor 647 labeled anti-Ki67 (Abcam; #ab194724) was used in combination with anti-glucagon and anti-Slc38a5 antibodies. Slides were scanned using a Zeiss Axio Scan.Z1 slide scanner (Zeiss) and the images were analyzed using the Halo (Indica Labs).
Blood glucose was determined using ACCU-CHEK® Compact Plus (Roche Diagnostics). Plasma glucagon and insulin levels were determined using glucagon and mouse insulin ELISA (Mercodia). Plasma total amino acid levels were measured using L-Amino Acid Quantification Kit (Sigma-Aldrich).

| muscle mass [2] | Compound | rate of cell proliferation, wildtype αTC1-6 cells [1] | cell proliferation, Slc38a5 knock-down αTC1-6 cells [1] |
| --- | --- | --- | --- |
| – | C[C@H](N)C(=O)O [alanine] | significantly increased | to a much lesser extent |
| small reduction | CO[C@H]1C[C@@H]2CC[C@@H](C)[C@@](O)(O2)C(=O)C(=O)N2CCCC[C@H]2C(=O)O[C@H]([C@H](C)C[C@@H]2CC[C@@H](O)[C@H](OC)C2)CC(=O)[C@H](C)/C=C(\C)[C@@H](O)[C@@H](OC)C(=O)[C@H](C)C[C@H](C)/C=C/C=C/C=C/1C [rapamycin, reference compound] | – | – |
| – | NC(=O)CC[C@H](N)C(=O)O [glutamine] | significantly increased | to a much lesser extent |

Reference: patent US20190248888A1, “METHODS OF LOWERING BLOOD GLUCOSE LEVELS” (Regeneron Pharmaceuticals, Inc., priority 2016, published 2019)
